Among the data in patent US20230081390A1, “INHIBITORS OF RAF KINASES” (Kinnate Biopharma Inc., priority 2019, published 2023) are IC50 values, retold here.

The target of the experiment is human RAF1 (Homo sapiens, UniProt P04049). The experiment can be described thus: Protein kinase assay (33P-ATP filter binding), human RAF1, 10-dose IC50. The following applies: MEK1 (K97R) substrate 3 micromolar, ATP 10 micromolar, read-out: RAF-1 IC50. It is filed as biochemical. A digest of the protocol: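 Radiometric filter-binding format: 10 µM ATP, 3 µM MEK1 (K97R) as substrate for human RAF1, 2 hr at room temperature in 20 mM HEPES pH 7.5 with 10 mM MgCl2. Compounds were dispensed acoustically from DMSO. IC50 came from percent kinase activity relative to vehicle over a 10-dose series.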
Chain of human RAF1 (P04049 whole entry): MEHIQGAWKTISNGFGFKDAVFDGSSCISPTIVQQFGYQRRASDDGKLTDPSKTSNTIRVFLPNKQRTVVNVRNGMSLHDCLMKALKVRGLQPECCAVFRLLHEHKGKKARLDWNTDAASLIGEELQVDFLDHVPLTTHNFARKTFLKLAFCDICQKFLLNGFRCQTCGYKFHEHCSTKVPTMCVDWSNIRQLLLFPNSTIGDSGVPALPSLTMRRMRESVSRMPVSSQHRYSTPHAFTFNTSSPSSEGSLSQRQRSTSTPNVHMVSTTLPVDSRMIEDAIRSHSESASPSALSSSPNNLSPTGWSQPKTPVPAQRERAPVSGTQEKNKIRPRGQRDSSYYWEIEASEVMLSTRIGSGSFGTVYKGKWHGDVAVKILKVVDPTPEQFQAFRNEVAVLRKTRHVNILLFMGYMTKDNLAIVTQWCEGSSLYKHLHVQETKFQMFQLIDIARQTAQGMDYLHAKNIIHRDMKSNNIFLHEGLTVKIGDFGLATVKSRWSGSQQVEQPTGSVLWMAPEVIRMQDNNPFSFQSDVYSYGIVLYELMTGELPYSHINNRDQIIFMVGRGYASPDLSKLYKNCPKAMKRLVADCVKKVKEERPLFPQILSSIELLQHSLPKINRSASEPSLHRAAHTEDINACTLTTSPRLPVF

Broadly, the IC50 is the concentration at which inhibition is half-maximal. For the molecule `Cc1cc(F)c(NC(=O)N2CCC(C(C)(C)C#N)C2)cc1-c1cc(OCCO)nc(N2CCOCC2)c1` (centres unmarked) [Example 99, 3-(1-cyano-1-methylethyl)-N-[2-fluoro-5-[2-(2-hydroxyethoxy)-6-(morpholin-4-yl)pyridin-4-yl]-4-methylphenyl]pyrrolidine-1-carboxamide], the IC50 is less than 10 nM. The same measure for `Cc1cc(F)c(NC(=O)N2CCC(F)(F)C(C(F)(F)F)C2)cc1-c1cc(OCCO)nc(N2CCOCC2)c1` (centres unmarked) [Example 104, 4,4-difluoro-N-[2-fluoro-5-[2-(2-hydroxyethoxy)-6-(morpholin-4-yl)pyridin-4-yl]-4-methylphenyl]-3-(trifluoromethyl)piperidine-1-carboxamide]: less than 10 nM; for `Cc1cc(F)c(NC(=O)N2CC3(C(F)(F)F)CC2CO3)cc1-c1cc(OCCO)nc(N2CCOCC2)c1` (centres unmarked) [Example 107, N-[2-fluoro-5-[2-(2-hydroxyethoxy)-6-(morpholin-4-yl)pyridin-4-yl]-4-methylphenyl]-1-(trifluoromethyl)-2-oxa-5-azabicyclo[2.2.1]heptane-5-carboxamide]: less than 10 nM; for `Cc1ccc(NC(=O)N2CCC(C3CC3(F)F)C2)cc1-c1cc(OCCO)nc(N2CCOCC2)c1` (centres unmarked) [Example 114, 3-(2,2-difluorocyclopropyl)-N-[3-[2-(2-hydroxyethoxy)-6-(morpholin-4-yl)pyridin-4-yl]-4-methylphenyl]pyrrolidine-1-carboxamide]: less than 10 nM. As to `Cc1ccc(NC(=O)N2CCC(CC(F)(F)F)C2)cc1-c1cnc(OC2CCOCC2)c(N2CCOCC2)c1` (centres unmarked) [Example 123, N-[4-methyl-3-[5-(morpholin-4-yl)-6-(oxan-4-yloxy)pyridin-3-yl]phenyl]-3-(2,2,2-trifluoroethyl)pyrrolidine-1-carboxamide], the IC50 was less than 10 nM. The same measure for `Cc1ccc(NC(=O)Nc2cnn(C(F)(F)F)c2)cc1-c1cc(OCCO)nc(N2CCOCC2)c1` [Example 125, 1-[3-[2-(2-hydroxyethoxy)-6-(morpholin-4-yl)pyridin-4-yl]-4-methylphenyl]-3-[1-(trifluoromethyl)pyrazol-4-yl]urea]: less than 10 nM; for `Cc1cc(F)c(NC(=O)N2CC[C@@H](OC(F)(F)F)C2)cc1-c1cnc(OC2CCOCC2)c(N2CCOCC2)c1` [Example 126, (3R)-N-[2-fluoro-4-methyl-5-[5-(morpholin-4-yl)-6-(oxan-4-yloxy)pyridin-3-yl]phenyl]-3-(trifluoromethoxy)pyrrolidine-1-carboxamide]: less than 10 nM. Take `Cc1cc(F)c(NC(=O)N2CC[C@H](OC(F)(F)F)C2)cc1-c1cnc(OC2CCOCC2)c(N2CCOCC2)c1` [Example 127, (3S)-N-[2-fluoro-4-methyl-5-[5-(morpholin-4-yl)-6-(oxan-4-yloxy)pyridin-3-yl]phenyl]-3-(trifluoromethoxy)pyrrolidine-1-carboxamide]: the IC50 is less than 10 nM. `Cc1ccc(NC(=O)N2CC[C@@H](OC(F)(F)F)C2)cc1-c1cnc(OC2CCOCC2)c(N2CCOCC2)c1` [Example 128, (3R)-N-[4-methyl-3-[5-(morpholin-4-yl)-6-(oxan-4-yloxy)pyridin-3-yl]phenyl]-3-(trifluoromethoxy)pyrrolidine-1-carboxamide]: the IC50 is less than 10 nM. For the molecule `Cc1ccc(NC(=O)N2CC[C@H](OC(F)(F)F)C2)cc1-c1cnc(OC2CCOCC2)c(N2CCOCC2)c1` [Example 129, (3S)-N-[4-methyl-3-[5-(morpholin-4-yl)-6-(oxan-4-yloxy)pyridin-3-yl]phenyl]-3-(trifluoromethoxy)pyrrolidine-1-carboxamide], the IC50 is less than 10 nM. For `Cc1ccc(NC(=O)Nc2cnn(C(F)(F)F)c2)cc1-c1cnc(OC2CCOCC2)c(N2CCOCC2)c1` [Example 130, 1-[4-methyl-3-[5-(morpholin-4-yl)-6-(oxan-4-yloxy)pyridin-3-yl]phenyl]-3-[1-(trifluoromethyl)pyrazol-4-yl]urea], the IC50 is less than 10 nM.
